Assay results taken from ChEMBL document CHEMBL1138810, “Studies of targeting and intracellular trafficking of an anti-androgen doxorubicin-formaldehyde conjugate in PC-3 prostate cancer cells bearing androgen receptor-GFP chimera” (J Med Chem, 2004).

Target: T1, Androgen receptor (Homo sapiens, UniProt P10275)
T1 sequence (P10275 whole entry): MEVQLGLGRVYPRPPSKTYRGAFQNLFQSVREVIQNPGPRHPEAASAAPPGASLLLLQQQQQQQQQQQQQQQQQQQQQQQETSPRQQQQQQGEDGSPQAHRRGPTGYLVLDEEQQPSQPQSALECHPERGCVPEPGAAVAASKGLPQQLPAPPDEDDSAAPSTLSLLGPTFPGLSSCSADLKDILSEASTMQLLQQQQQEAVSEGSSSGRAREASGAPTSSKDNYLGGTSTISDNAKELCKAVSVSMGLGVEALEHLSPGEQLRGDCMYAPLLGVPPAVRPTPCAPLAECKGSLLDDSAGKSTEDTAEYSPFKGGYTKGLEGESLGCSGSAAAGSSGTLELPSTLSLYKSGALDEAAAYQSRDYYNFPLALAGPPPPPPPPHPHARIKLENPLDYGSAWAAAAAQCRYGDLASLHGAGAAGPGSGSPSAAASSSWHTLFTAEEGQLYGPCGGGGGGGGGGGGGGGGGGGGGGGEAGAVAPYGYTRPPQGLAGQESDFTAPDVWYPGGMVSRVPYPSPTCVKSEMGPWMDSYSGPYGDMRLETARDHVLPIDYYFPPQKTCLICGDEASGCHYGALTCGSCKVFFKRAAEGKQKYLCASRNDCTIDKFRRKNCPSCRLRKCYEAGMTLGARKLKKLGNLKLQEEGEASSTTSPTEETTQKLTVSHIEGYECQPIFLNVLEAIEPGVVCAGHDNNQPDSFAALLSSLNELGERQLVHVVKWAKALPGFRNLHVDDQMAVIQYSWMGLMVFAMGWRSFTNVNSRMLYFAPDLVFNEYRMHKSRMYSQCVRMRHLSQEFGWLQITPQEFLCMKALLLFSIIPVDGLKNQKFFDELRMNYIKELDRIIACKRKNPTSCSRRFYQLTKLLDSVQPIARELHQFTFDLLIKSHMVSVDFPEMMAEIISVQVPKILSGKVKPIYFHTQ
Test: Inhibition of [3H]mibolerone binding to human Androgen receptor of PC3/AR Cell Lysate

SMILES	IC50 [nM]
COc1cccc2c1C(=O)c1c(O)c3c(c(O)c1C2=O)C[C@@](O)(C(=O)CO)CC3OC1C[C@H](NCNC(=O)c2cc(COCC#CCN3C(=O)N(c4ccc(C#N)c(C(F)(F)F)c4)C(=O)C3(C)C)ccc2O)[C@H](O)[C@H](C)O1 (some centres undefined)	90
CC1(C)C(=O)N(c2ccc(C#N)c(C(F)(F)F)c2)C(=O)N1OCC#CCCc1ccc(O)c(C(N)=O)c1	49
CC1(C)C(=O)N(c2ccc(C#N)c(C(F)(F)F)c2)C(=O)N1OCCOCCOCCCc1ccc(O)c(C(N)=O)c1	332
CCCC(=O)Oc1ccc(COCC#CCN2C(=O)N(c3ccc(C#N)c(C(F)(F)F)c3)C(=O)C2(C)C)cc1C(=O)NCN[C@H]1CC(OC2C[C@](O)(C(=O)CO)Cc3c(O)c4c(c(O)c32)C(=O)c2c(OC)cccc2C4=O)O[C@@H](C)[C@H]1O (some centres undefined)	63
